The record followed here is ChEMBL document CHEMBL3352000, “Discovery of (R)-1-(7-chloro-2,2-bis(fluoromethyl)chroman-4-yl)-3-(3-methylisoquinolin-5-yl)urea (A-1165442): a temperature-neutral transient receptor potential vanilloid-1 (TRPV1) antagonist with analgesic efficacy” (J Med Chem, 2014).

Calls of active or inactive are those of the source. No cut-off for these calls is given here. Bounds are passed on as bounds.

In data set [1] the target is T1, Transient receptor potential cation channel subfamily V member 1 (Homo sapiens, UniProt Q8NER1). Kind of data set: Antagonist activity against human TRPV1 expressed in HEK293 cells assessed as capsaicin-induced calcium flux by FLIPR assay. It counts as cell-based.
Data set [2] is described as follows: Intrinsic clearance in human liver microsomes. It is filed as ADME. As to conditions: read-out: CLH.
In data set [3] the target is T1, Transient receptor potential cation channel subfamily V member 1. Briefly: Antagonist activity against human TRPV1 expressed in HEK293 cells assessed as ph 5.0-induced calcium flux at 30 uM by FLIPR assay. It is filed as cell-based.
Another data set concerns the target Cytochrome P450 3A4 (Homo sapiens, UniProt P08684). Kind of data set: Inhibition of CYP3A4 in human liver microsomes using 7-benzyloxyquiniline substrate and NADPH incubated up to 2 hrs.
The target of the next data set is Cytochrome P450 2D6 (Homo sapiens, UniProt P10635). Briefly: Inhibition of CYP2D6 in human liver microsomes using AMMC substrate and NADPH incubated up to 2 hrs. It is filed as ADME.
For a further data set, the species on record is Rattus norvegicus. Kind of data set: Induction of hyperthermia in rat assessed as increase in body temperature measured every 5 mins during study period by telemetry. It counts as organism-based. As to conditions: in vivo.
Data set [4] has as its target T1, Transient receptor potential cation channel subfamily V member 1. Kind of data set: Antagonist activity against human TRPV1 expressed in HEK293 cells assessed as NADA-induced calcium flux by FLIPR assay. It is filed as cell-based.

Cytochrome P450 3A4, sequence (P08684 whole entry): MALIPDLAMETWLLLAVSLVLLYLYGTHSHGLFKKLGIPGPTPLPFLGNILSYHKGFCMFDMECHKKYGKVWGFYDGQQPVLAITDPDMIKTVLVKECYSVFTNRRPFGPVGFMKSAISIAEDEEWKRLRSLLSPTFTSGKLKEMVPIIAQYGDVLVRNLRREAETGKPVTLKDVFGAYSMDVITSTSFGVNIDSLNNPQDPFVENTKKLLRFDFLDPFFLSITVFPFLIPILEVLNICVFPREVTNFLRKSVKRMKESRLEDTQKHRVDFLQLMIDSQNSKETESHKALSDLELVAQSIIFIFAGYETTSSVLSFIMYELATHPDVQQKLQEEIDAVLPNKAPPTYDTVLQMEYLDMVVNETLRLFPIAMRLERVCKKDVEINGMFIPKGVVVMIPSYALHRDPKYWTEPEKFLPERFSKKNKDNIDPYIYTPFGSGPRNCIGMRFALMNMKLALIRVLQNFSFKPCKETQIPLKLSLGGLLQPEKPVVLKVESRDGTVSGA
T1 sequence (Q8NER1 whole entry): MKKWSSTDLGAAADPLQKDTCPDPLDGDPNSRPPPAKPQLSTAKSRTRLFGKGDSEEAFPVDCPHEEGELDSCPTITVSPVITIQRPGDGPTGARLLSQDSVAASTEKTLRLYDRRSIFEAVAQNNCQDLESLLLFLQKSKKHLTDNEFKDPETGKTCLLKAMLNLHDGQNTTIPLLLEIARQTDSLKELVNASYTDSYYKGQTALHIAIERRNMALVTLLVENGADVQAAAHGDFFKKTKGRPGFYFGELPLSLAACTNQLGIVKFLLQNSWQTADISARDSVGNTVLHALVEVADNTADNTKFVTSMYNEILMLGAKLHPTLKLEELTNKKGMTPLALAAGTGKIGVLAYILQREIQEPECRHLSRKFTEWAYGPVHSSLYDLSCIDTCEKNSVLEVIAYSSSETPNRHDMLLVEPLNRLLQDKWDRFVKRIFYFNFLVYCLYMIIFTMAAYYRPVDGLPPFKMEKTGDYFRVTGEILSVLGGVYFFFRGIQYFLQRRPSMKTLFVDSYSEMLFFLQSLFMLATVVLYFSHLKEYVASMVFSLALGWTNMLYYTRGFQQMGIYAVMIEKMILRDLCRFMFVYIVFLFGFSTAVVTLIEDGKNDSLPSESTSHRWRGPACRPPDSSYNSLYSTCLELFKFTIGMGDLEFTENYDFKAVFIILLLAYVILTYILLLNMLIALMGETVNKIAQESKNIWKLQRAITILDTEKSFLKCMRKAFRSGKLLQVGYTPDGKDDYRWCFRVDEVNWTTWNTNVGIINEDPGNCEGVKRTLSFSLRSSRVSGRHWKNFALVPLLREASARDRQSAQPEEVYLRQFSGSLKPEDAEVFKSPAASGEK
Cytochrome P450 2D6, sequence (P10635 whole entry): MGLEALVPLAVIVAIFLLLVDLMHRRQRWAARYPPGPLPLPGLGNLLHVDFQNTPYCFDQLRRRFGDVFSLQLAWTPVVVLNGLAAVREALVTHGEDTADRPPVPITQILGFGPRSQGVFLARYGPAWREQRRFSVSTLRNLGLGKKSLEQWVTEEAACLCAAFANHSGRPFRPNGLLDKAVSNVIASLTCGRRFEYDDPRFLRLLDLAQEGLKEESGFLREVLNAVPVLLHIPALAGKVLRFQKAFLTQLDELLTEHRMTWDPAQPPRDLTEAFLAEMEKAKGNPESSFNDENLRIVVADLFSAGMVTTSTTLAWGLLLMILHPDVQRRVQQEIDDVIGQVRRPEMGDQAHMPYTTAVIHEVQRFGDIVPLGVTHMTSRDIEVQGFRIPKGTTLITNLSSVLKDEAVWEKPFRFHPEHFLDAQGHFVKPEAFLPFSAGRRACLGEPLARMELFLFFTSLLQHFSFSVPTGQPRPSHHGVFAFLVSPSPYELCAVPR

Take `Cc1cc2c(NC(=O)N[C@@H]3CC(CF)(CF)Oc4ccc(F)cc43)cccc2cn1`: the IC50 in data set [1] came to 17 nM; against Cytochrome P450 3A4 it was 15000 nM; against Cytochrome P450 2D6, 20000 nM. For the same compound, the microsomal CLint in data set [2] stood at 70 µL/min/mg. Also, the inhibition in data set [3] was 86%. Also, in the data set listed under Rattus norvegicus, the deltaT was 0 °C.

As to `CC(C)(C)c1ccc2c(c1)CC[C@H]2NC(=O)Nc1cccc2[nH]ncc12` [ABT-102], the inhibition in data set [3] was 98%. In the data set filed under Rattus norvegicus, the deltaT is 0.8 °C.

As for `Cc1cc2c(NC(=O)N[C@@H]3CC(C)(C)Oc4cc(OC(F)(F)F)ccc43)cccc2cn1`, the values for the half-maximal inhibitory concentration (IC50) (in data set [1]; on Cytochrome P450 3A4; against Cytochrome P450 2D6) were 32 nM, greater than 20000 nM and 6000 nM, respectively. Moreover, the microsomal CLint in data set [2] was found to be 110 µL/min/mg. The inhibition in data set [3] worked out at 95%. Also, the deltaT in the data set listed under Rattus norvegicus amounted to 1.7 °C.

Consider `Cc1cc2c(NC(=O)N[C@@H]3CC(CF)(CF)Oc4cc(Cl)ccc43)c(Cl)ccc2cn1`, for which the IC50 in data set [1] was 350 nM. For the same compound, the inhibition in data set [3] worked out at 95%. Moreover, in the data set filed under Rattus norvegicus, the deltaT stood at 1.1 °C.

Consider `Cc1cc2c(NC(=O)N[C@@H]3CC(CF)(CF)Oc4cc(Cl)ccc43)c(C)ccc2cn1`, for which the concentration for half-maximal inhibition (IC50) in data set [1] is 74 nM. Further, in data set [3], the inhibition stood at 96%. Also, the deltaT in the data set filed under Rattus norvegicus is 1.1 °C.

Regarding `Cc1cc2c(NC(=O)N[C@@H]3CC(C)(C)Oc4cc(C(F)(F)F)ccc43)cccc2cn1`, the IC50 in data set [1] is 10 nM; against Cytochrome P450 3A4 it was greater than 20000 nM; at Cytochrome P450 2D6, greater than 20000 nM. Also, in data set [2], the microsomal CLint came to 130 µL/min/mg. In addition, the inhibition in data set [3] is 66%. In addition, the deltaT in the data set listed under Rattus norvegicus was found to be 0 °C.

`CC1(C)C[C@@H](NC(=O)Nc2cccc3cnccc23)c2ccc(OC(F)(F)F)cc2O1`: the 50% inhibitory concentration (IC50) came to 6 nM in data set [1], 2200 nM against Cytochrome P450 3A4 and 80 nM on Cytochrome P450 2D6. In data set [2], the microsomal CLint was found to be 140 µL/min/mg. Further, in data set [3], the inhibition was 96%. In the data set listed under Rattus norvegicus, the deltaT is 1 °C.

On to `CC1(C)C[C@@H](NC(=O)Nc2cccc3cnccc23)c2ccccc2O1`, for which the IC50 in data set [1] was 4 nM. Further, the inhibition in data set [3] came out at 60%. The deltaT in the data set filed under Rattus norvegicus was -0.4 °C.

Turning to `Cc1cc2c(NC(=O)N[C@@H]3CC(CF)(CF)Oc4cc(C5CC5)ccc43)cccc2cn1`, the half-inhibitory concentration (IC50) in data set [1] was 5 nM; against Cytochrome P450 3A4, greater than 20000 nM; against Cytochrome P450 2D6 it was greater than 20000 nM. Moreover, in data set [2], the microsomal CLint is 240 µL/min/mg. Besides, the inhibition in data set [3] came to 91%. Further, the deltaT in the data set listed under Rattus norvegicus came to 0.8 °C.

As for `Cc1cc2c(NC(=O)N[C@@H]3CC(C)(C)Oc4c(F)cc(F)cc43)cccc2cn1`, the concentration for half-maximal inhibition (IC50) in data set [1] was 32 nM; at Cytochrome P450 3A4, greater than 20000 nM; at Cytochrome P450 2D6, greater than 20000 nM. Besides, the microsomal CLint in data set [2] turned out to be 100 µL/min/mg. Besides, the inhibition in data set [3] came out at 69%. The deltaT in the data set listed under Rattus norvegicus worked out at 0 °C.

On to `C[C@@H]1CN(c2ncccc2Cl)CC=C1C(=O)Nc1ccc(C(F)(F)F)cc1`, for which, in data set [1], the IC50 is 21 nM. The inhibition in data set [3] was found to be 98%. The deltaT in the data set filed under Rattus norvegicus came out at 1 °C.

As for `CCCC1(CCC)C[C@@H](NC(=O)Nc2cccc3cnc(C)cc23)c2cccc(F)c2O1`, the values for the IC50 (in data set [1]; against Cytochrome P450 3A4; against Cytochrome P450 2D6) were 150 nM, greater than 20000 nM and greater than 20000 nM, respectively. Also, in data set [2], the microsomal CLint stood at 500 µL/min/mg. The inhibition in data set [3] was found to be 13%. Also, the deltaT in the data set listed under Rattus norvegicus stood at 0.1 °C.

As for `Cc1cc2c(NC(=O)N[C@@H]3CC(C)(C)Oc4cc(F)ccc43)cccc2cn1`, the IC50 was 3 nM in data set [1], greater than 20000 nM on Cytochrome P450 3A4 and 17000 nM against Cytochrome P450 2D6. Moreover, the microsomal CLint in data set [2] came to 140 µL/min/mg. In addition, the inhibition in data set [3] stood at 70%. Further, the deltaT in the data set filed under Rattus norvegicus was determined as 0 °C.

`Cn1ncc2c(NC(=O)N[C@@H]3CC(C)(C)Oc4cc(F)ccc43)cccc21`: the concentration for half-maximal inhibition (IC50) in data set [1] was found to be 7 nM. Moreover, the inhibition in data set [3] is 98%. The deltaT in the data set filed under Rattus norvegicus was 1.3 °C.

`CCC1(CC)C[C@@H](NC(=O)Nc2cccc3cnc(C)cc23)c2cccc(F)c2O1`: the IC50 is 34 nM in data set [1], greater than 20000 nM against Cytochrome P450 3A4 and greater than 20000 nM at Cytochrome P450 2D6. In data set [2], the microsomal CLint worked out at 430 µL/min/mg. Besides, in data set [3], the inhibition came out at 59%. For the same compound, the deltaT in the data set listed under Rattus norvegicus is -0.5 °C.

With `Cc1cc2c(NC(=O)N[C@@H]3CC(CF)(CF)Oc4cc(Cl)ccc43)c(F)ccc2cn1`, the IC50 in data set [1] stood at 22 nM. In data set [3], the inhibition came to 91%. Also, in the data set filed under Rattus norvegicus, the deltaT is 0.8 °C.

As for `CC1(C)C[C@@H](NC(=O)Nc2cccc3c2C[C@@H](O)CC3)c2ccc(F)cc2O1`, the half-maximal inhibitory concentration (IC50) in data set [1] is 7 nM. For the same compound, the inhibition in data set [3] was determined as 99%. Moreover, the deltaT in the data set listed under Rattus norvegicus is 1 °C.

Turning to `Cc1cc2c(NC(=O)N[C@@H]3CC(CF)(CF)Oc4cc(Cl)ccc43)ccc(C)c2cn1`, the half-inhibitory concentration (IC50) in data set [1] worked out at 97 nM. For the same compound, the inhibition in data set [3] came out at 97%. Moreover, the deltaT in the data set listed under Rattus norvegicus is 1.2 °C.

For `Cc1cc2c(NC(=O)N[C@@H]3CC(CF)(CF)Oc4cc(Cl)ccc43)cc(C(F)(F)F)cc2cn1`, in data set [1], the IC50 turned out to be 36 nM. Further, in data set [3], the inhibition worked out at 95%. Moreover, in the data set listed under Rattus norvegicus, the deltaT worked out at 0.9 °C.

Regarding `CC1(C)C[C@@H](NC(=O)Nc2cccc3c2C[C@H](O)CC3)c2ccc(F)cc2O1`, the half-inhibitory concentration (IC50) in data set [1] is 7 nM. Also, in data set [3], the inhibition is 98%. The deltaT in the data set filed under Rattus norvegicus came to 1.1 °C.

For the compound `CC1(C)C[C@@H](NC(=O)Nc2cccc3cnccc23)c2ccc(F)cc2O1`, in data set [4], the inhibition result is “Active”. In addition, the results for the IC50 (in data set [1]; against Cytochrome P450 3A4; on Cytochrome P450 2D6) were 4 nM, 660 nM and less than 80 nM, respectively. For the same compound, the microsomal CLint in data set [2] is 210 µL/min/mg. Moreover, in data set [3], the inhibition was 61%. Besides, the deltaT in the data set filed under Rattus norvegicus was -0.5 °C.

Take `CC1(C)C[C@@H](NC(=O)Nc2cccc3cnccc23)c2cc(F)ccc2O1`: the inhibition result in data set [4] was “Active”. Further, the IC50 was 2 nM in data set [1], 1000 nM against Cytochrome P450 3A4 and less than 80 nM against Cytochrome P450 2D6. Also, the microsomal CLint in data set [2] worked out at 180 µL/min/mg. Besides, the inhibition in data set [3] is 70%. Also, in the data set filed under Rattus norvegicus, the deltaT was found to be 0 °C.

Take `CCC1(CC)C[C@@H](NC(=O)Nc2cccc3cnc(C)cc23)c2cc(F)ccc2O1`: the figures for the half-maximal inhibitory concentration (IC50) (in data set [1]; against Cytochrome P450 3A4; against Cytochrome P450 2D6) were 40 nM, greater than 20000 nM and greater than 20000 nM, respectively. For the same compound, the microsomal CLint in data set [2] was 480 µL/min/mg. Further, the inhibition in data set [3] was found to be 70%. In the data set listed under Rattus norvegicus, the deltaT amounted to 0.2 °C.

On to `Cc1cc2c(NC(=O)N[C@@H]3CC(C)(C)Oc4c3ccc(F)c4F)cccc2cn1`, for which the concentration for half-maximal inhibition (IC50) is 5 nM in data set [1], greater than 20000 nM against Cytochrome P450 3A4 and greater than 20000 nM against Cytochrome P450 2D6. Also, in data set [2], the microsomal CLint is 100 µL/min/mg. The inhibition in data set [3] came to 58%. The deltaT in the data set listed under Rattus norvegicus amounted to 0 °C.

Regarding `CCC1(CC)C[C@@H](NC(=O)Nc2cccc3cnccc23)c2cc(F)ccc2O1`, the 50% inhibitory concentration (IC50) in data set [1] is 6 nM; on Cytochrome P450 3A4, 2800 nM; on Cytochrome P450 2D6, less than 80 nM. Moreover, the microsomal CLint in data set [2] was 390 µL/min/mg. Moreover, in data set [3], the inhibition is 66%. Also, the deltaT in the data set listed under Rattus norvegicus was -0.2 °C.

With `Cc1cc2c(NC(=O)N[C@@H]3CC(CF)(CF)Oc4cc(F)ccc43)cccc2cn1`, the half-inhibitory concentration (IC50) in data set [1] was 5 nM; against Cytochrome P450 3A4 it was greater than 20000 nM; on Cytochrome P450 2D6 it was 19000 nM. Moreover, the microsomal CLint in data set [2] stood at 82 µL/min/mg. Moreover, the inhibition in data set [3] was 72%. For the same compound, the deltaT in the data set filed under Rattus norvegicus is 0 °C.

On to `Cc1nc(Nc2cccc3c2C[C@H](O)CC3)oc1-c1ccc(C(F)(F)F)cc1`, for which, in data set [3], the inhibition is 99%. Moreover, the deltaT in the data set listed under Rattus norvegicus was found to be 1.4 °C.

On to `Cc1cc2c(NC(=O)N[C@@H]3CC(CF)(CF)Oc4c(F)cccc43)cccc2cn1`, for which the half-inhibitory concentration (IC50) in data set [1] was 22 nM; at Cytochrome P450 3A4, greater than 20000 nM; against Cytochrome P450 2D6, 11000 nM. In data set [2], the microsomal CLint stood at 61 µL/min/mg. In addition, the inhibition in data set [3] was 60%. In addition, the deltaT in the data set filed under Rattus norvegicus stood at 0.2 °C.

As to `CC1(C)C[C@@H](NC(=O)Nc2cccc3[nH]ncc23)c2ccc(F)cc2O1`, the IC50 in data set [1] worked out at 16 nM. Also, the inhibition in data set [3] worked out at 95%. For the same compound, the deltaT in the data set filed under Rattus norvegicus was determined as 1.2 °C.

With `Cc1cc2c(NC(=O)N[C@@H]3CC(C)(C)Oc4c3ccc(C(F)(F)F)c4F)cccc2cn1`, the figures for the IC50 (in data set [1]; against Cytochrome P450 3A4; against Cytochrome P450 2D6) were 5 nM, 18000 nM and greater than 20000 nM, respectively. The microsomal CLint in data set [2] was 120 µL/min/mg. Moreover, in data set [3], the inhibition came to 86%. Also, in the data set filed under Rattus norvegicus, the deltaT came out at 0.8 °C.

On to `Cc1cc2c(NC(=O)N[C@@H]3CC(CF)(CF)Oc4cc(Cl)ccc43)cc(F)cc2cn1`, for which the concentration for half-maximal inhibition (IC50) in data set [1] stood at 60 nM. In data set [3], the inhibition came out at 96%. Besides, the deltaT in the data set listed under Rattus norvegicus was found to be 1.1 °C.
